Test results reported in US10597388B2, “Pyridazinone herbicides” (FMC CORPORATION, priority 2014, dated 2020).

Experiments:
Assay type in all cases: in vivo
[1] = test system: barnyardgrass (Echinochloa crus-galli); assay: Test C greenhouse herbicide test, pre- and postemergence
Procedure, shortened: (§1)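 Two application timings: at sowing into a soil/sand blend, and on 2–18 cm seedlings in peat-vermiculite potting mix. A non-phytotoxic, surfactant-containing solvent carried the compounds. Plants were compared with controls and rated visually on 0–100 after 13–15 d.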

[2] = test system: blackgrass (Alopecurus myosuroides); assay: as above
Procedure, shortened: as §1

corn (Zea mays) = assay: as above
Procedure, shortened: as §1

[3] = test system: crabgrass, large (large crabgrass, Digitaria sanguinalis); assay: as above
Procedure, shortened: as §1

[4] = test system: foxtail, giant (giant foxtail, Setaria faberii); assay: as above
Procedure, shortened: as §1

[5] = test system: galium (catchweed bedstraw, Galium aparine); assay: as above
Procedure, shortened: as §1

[6] = test system: johnsongrass (Sorghum halepense); assay: as above
Procedure, shortened: as §1

[7] = test system: morningglory (Ipomoea coccinea); assay: as above
Procedure, shortened: as §1

[8] = test system: oilseed rape (Brassica napus); assay: as above
Procedure, shortened: as §1

[9] = test system: pigweed (Amaranthus retroflexus); assay: as above
Procedure, shortened: as §1

[10] = test system: ragweed (common ragweed, Ambrosia elatior); assay: as above
Procedure, shortened: as §1

soybean (Glycine max) = assay: as above
Procedure, shortened: as §1

[11] = test system: velvetleaf (Abutilon theophrasti); assay: as above
Procedure, shortened: as §1

[12] = test system: waterhemp (common waterhemp, Amaranthus rudis); assay: as above
Procedure, shortened: as §1

[13] = test system: wheat (winter wheat, Triticum aestivum); assay: as above
Procedure, shortened: as §1

kochia (Kochia scoparia) = assay: Test C greenhouse herbicide test, postemergence; details: Postemergence
Procedure, shortened: (§2)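 Visual injury scores (0–100, where 100 means complete control) were assigned 13 to 15 d after postemergence application, by comparison with untreated plants. Treated seedlings stood 2 to 18 cm tall, at the 1- to 4-leaf stage.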

[14] = test system: oat, wild (wild oat, Avena fatua); assay: Test C greenhouse herbicide test, postemergence; details: Postemergence
Procedure, shortened: as §2

[15] = Postemergence, 31 g ai/ha, scale 0 to 100 (0 no effect, 100 complete control)
[16] = Postemergence, 125 g ai/ha, scale 0 to 100, 0 is no effect, 100 is complete control
[17] = Postemergence, 250 g ai/ha, scale 0 to 100, 0 no effect, 100 complete control, 13 to 15 d
[18] = Preemergence, 31 g ai/ha, scale 0 to 100, 0 is no effect, 100 is complete control
[19] = Preemergence, 62 g ai/ha, scale 0 to 100, 0 is no effect, 100 is complete control
[20] = Preemergence, 125 g ai/ha, scale 0 to 100, 0 is no effect, 100 is complete control
[21] = Preemergence, 250 g ai/ha, scale 0 to 100 (0 no effect, 100 complete control)
[22] = postemergence, 62 g ai/ha, scale 0 to 100, 0 no effect, 100 complete control
[23] = 31 g ai/ha, scale 0 to 100 (0 no effect, 100 complete control)
[24] = 125 g ai/ha, scale 0 to 100, 0 is no effect, 100 is complete control
[25] = 250 g ai/ha, scale 0 to 100, 0 no effect, 100 complete control, 13 to 15 d

With `CCC(=O)Oc1c(C)nn(C)c(=O)c1-c1c(C)sc2ccc(Cl)cc12` [Compound 109] the “Plant response rating, Barnyardgrass” value [1, 15] was 25, the “Plant response rating, Barnyardgrass” value [1, 16] was 55 and the “Plant response rating, Barnyardgrass” value [1, 17] was 65. The “Plant response rating, Barnyardgrass” value [1, 18] was 10, the “Plant response rating, Barnyardgrass” value [1, 19] was 35 and the “Plant response rating, Barnyardgrass” value [1, 20] was 70. For the same compound, the “Barnyardgrass plant response rating” value [1, 21] was 80, the “Barnyardgrass plant response rating” value [1, 22] was 30 and the “Plant response rating, Blackgrass” value [2, 15] was 20. The “Plant response rating, Blackgrass” value [2, 16] was 50, the “Plant response rating, Blackgrass” value [2, 17] was 80 and the “Plant response rating, Blackgrass” value [2, 18] was 35. The “Plant response rating, Blackgrass” value [2, 19] was 30, the “Plant response rating, Blackgrass” value [2, 20] was 85 and the “Blackgrass plant response rating” value [2, 21] was 90. The “Blackgrass plant response rating” value [2, 22] was 25, the “Plant response rating, Corn” value (corn (Zea mays); [15]) was 0 and the “Plant response rating, Corn” value (corn (Zea mays); [16]) was 35. The “Plant response rating, Corn” value (corn (Zea mays); [17]) was 50, the “Plant response rating, Corn” value (corn (Zea mays); [18]) was 5 and the “Plant response rating, Corn” value (corn (Zea mays); [19]) was 0. For the same compound, the “Plant response rating, Corn” value (corn (Zea mays); [20]) was 0, the “Corn plant response rating” value (corn (Zea mays); [21]) was 0 and the “Corn plant response rating” value (corn (Zea mays); [22]) was 15. The “Plant response rating, Crabgrass, Large” value [3, 15] was 35, the “Plant response rating, Crabgrass, Large” value [3, 16] was 60 and the “Plant response rating, Crabgrass, Large” value [3, 17] was 60. The “Plant response rating, Crabgrass, Large” value [3, 18] was 40, the “Plant response rating, Crabgrass, Large” value [3, 19] was 65 and the “Plant response rating, Crabgrass, Large” value [3, 20] was 70. The “Crabgrass, Large plant response rating” value [3, 21] was 80, the “Crabgrass, Large plant response rating” value [3, 22] was 40 and the “Plant response rating, Foxtail, Giant” value [4, 15] was 45. For the same compound, the “Plant response rating, Foxtail, Giant” value [4, 16] was 80, the “Plant response rating, Foxtail, Giant” value [4, 17] was 85 and the “Plant response rating, Foxtail, Giant” value [4, 18] was 65. For the same compound, the “Plant response rating, Foxtail, Giant” value [4, 19] was 85, the “Plant response rating, Foxtail, Giant” value [4, 20] was 85 and the “Foxtail, Giant plant response rating” value [4, 21] was 90. The “Plant response rating, Galium” value [5, 15] was 98, the “Plant response rating, Galium” value [5, 16] was 100 and the “Plant response rating, Galium” value [5, 17] was 100. For the same compound, the “Plant response rating, Galium” value [5, 18] was 90, the “Plant response rating, Galium” value [5, 19] was 90 and the “Plant response rating, Galium” value [5, 20] was 90. For the same compound, the “Galium plant response rating” value [5, 21] was 90, the “Plant response rating, Johnsongrass” value [6, 15] was 0 and the “Plant response rating, Johnsongrass” value [6, 16] was 5. For the same compound, the “Plant response rating, Johnsongrass” value [6, 17] was 5, the “Plant response rating, Johnsongrass” value [6, 18] was 0 and the “Plant response rating, Johnsongrass” value [6, 19] was 30. The “Plant response rating, Johnsongrass” value [6, 20] was 40, the “Johnsongrass plant response rating” value [6, 21] was 65 and the “Plant response rating, Morningglory” value [7, 15] was 95. The “Plant response rating, Morningglory” value [7, 16] was 100, the “Plant response rating, Morningglory” value [7, 17] was 100 and the “Plant response rating, Morningglory” value [7, 18] was 85. The “Plant response rating, Morningglory” value [7, 19] was 85, the “Plant response rating, Morningglory” value [7, 20] was 90 and the “Morningglory plant response rating” value [7, 21] was 98. The “Plant response rating, Oilseed Rape” value [8, 15] was 70, the “Plant response rating, Oilseed Rape” value [8, 16] was 95 and the “Plant response rating, Oilseed Rape” value [8, 17] was 95. For the same compound, the “Plant response rating, Oilseed Rape” value [8, 18] was 5, the “Plant response rating, Oilseed Rape” value [8, 19] was 85 and the “Plant response rating, Oilseed Rape” value [8, 20] was 85. For the same compound, the “Oilseed Rape plant response rating” value [8, 21] was 90, the “Plant response rating, Pigweed” value [9, 15] was 95 and the “Plant response rating, Pigweed” value [9, 16] was 100. For the same compound, the “Plant response rating, Pigweed” value [9, 17] was 100, the “Plant response rating, Pigweed” value [9, 18] was 100 and the “Plant response rating, Pigweed” value [9, 19] was 100. The “Plant response rating, Pigweed” value [9, 20] was 100, the “Pigweed plant response rating” value [9, 21] was 100 and the “Plant response rating, Ragweed” value [10, 15] was 80. The “Plant response rating, Ragweed” value [10, 16] was 100, the “Plant response rating, Ragweed” value [10, 17] was 100 and the “Plant response rating, Ragweed” value [10, 18] was 95. For the same compound, the “Plant response rating, Ragweed” value [10, 19] was 90, the “Plant response rating, Ragweed” value [10, 20] was 95 and the “Ragweed plant response rating” value [10, 21] was 100. The “Plant response rating, Soybean” value (soybean (Glycine max); [15]) was 0, the “Plant response rating, Soybean” value (soybean (Glycine max); [16]) was 30 and the “Plant response rating, Soybean” value (soybean (Glycine max); [17]) was 25. For the same compound, the “Plant response rating, Soybean” value (soybean (Glycine max); [18]) was 0, the “Plant response rating, Soybean” value (soybean (Glycine max); [19]) was 0 and the “Plant response rating, Soybean” value (soybean (Glycine max); [20]) was 0. The “Soybean plant response rating” value (soybean (Glycine max); [21]) was 0, the “Plant response rating, Velvetleaf” value [11, 15] was 75 and the “Plant response rating, Velvetleaf” value [11, 16] was 98. The “Plant response rating, Velvetleaf” value [11, 17] was 100, the “Plant response rating, Velvetleaf” value [11, 18] was 60 and the “Plant response rating, Velvetleaf” value [11, 19] was 75. The “Plant response rating, Velvetleaf” value [11, 20] was 80, the “Velvetleaf plant response rating” value [11, 21] was 90 and the “Plant response rating, Waterhemp” value [12, 15] was 80. For the same compound, the “Plant response rating, Waterhemp” value [12, 16] was 90, the “Plant response rating, Waterhemp” value [12, 17] was 100 and the “Plant response rating, Waterhemp” value [12, 18] was 80. For the same compound, the “Plant response rating, Waterhemp” value [12, 19] was 90, the “Plant response rating, Waterhemp” value [12, 20] was 100 and the “Waterhemp plant response rating” value [12, 21] was 100. The “Plant response rating, Wheat” value [13, 15] was 0, the “Plant response rating, Wheat” value [13, 16] was 10 and the “Plant response rating, Wheat” value [13, 17] was 35. The “Plant response rating, Wheat” value [13, 18] was 0, the “Plant response rating, Wheat” value [13, 19] was 10 and the “Plant response rating, Wheat” value [13, 20] was 10. The “Wheat plant response rating” value [13, 21] was 15, the “Plant response rating, Kochia” value (kochia (Kochia scoparia); [23]) was 95 and the “Plant response rating, Kochia” value (kochia (Kochia scoparia); [24]) was 100. For the same compound, the “Plant response rating, Kochia” value (kochia (Kochia scoparia); [25]) was 100, the “Plant response rating, Oat, Wild” value [14, 23] was 80 and the “Plant response rating, Oat, Wild” value [14, 24] was 90. For the same compound, the “Plant response rating, Oat, Wild” value [14, 25] was 90.
